In patent US12187742B2 (XRAD Therapeutics, Inc., priority 2018, dated 2025) one finds IC50 data, which are given here for 22 compounds.

Assay [1] deals with ATM (Homo sapiens (Human), UniProt Q13315). The experiment in a line: ATM in Cell Western Assay (pKAP1 in etoposide-treated MCF-7 cells). In kind it is cell-based. The essentials:
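After paraformaldehyde fixation and Triton X-100 permeabilization, immunostained plates were read by infrared scanning (ODYSSEY CLx). Compound was given as 10 doses, 3-fold dilutions from a 1 μM final top concentration.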

Assay [2] deals with DNA-PK (Homo sapiens (Human), UniProt P78527). The experiment in a line: DNA-PK Enzyme-Linked Immunosorbent Assay (phosphorylation of GST-p53 (1-101) peptide). In kind it is biochemical. The settings on record: ELISA. An outline of the steps: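 Inhibition measured by 450 nm absorbance after HRP/TMB detection of phospho-Ser15 on immobilized GST-p53 (1-101). The kinase reaction used 0.1 μg/mL DNA-PK and 20 μM ATP, 1 h at 25 °C. Ten 3-fold compound dilutions, top final concentration 100 nM.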
On the technique in general: ELISA stands for enzyme-linked immunosorbent assay.

[3] abbreviates: MCF-7 cells, etoposide 100 μM, 1 hr, pKAP1 readout.
[4] abbreviates: pKAP1 in etoposide-treated MCF-7 cells.

A word on the pIC50: it is the IC50 on a negative log10 scale, so that one unit is a factor of ten.

pIC50: −log10 of the molar value. Structures can show the parent of a compound that is named as a salt.

Chain of ATM (Q13315 whole entry): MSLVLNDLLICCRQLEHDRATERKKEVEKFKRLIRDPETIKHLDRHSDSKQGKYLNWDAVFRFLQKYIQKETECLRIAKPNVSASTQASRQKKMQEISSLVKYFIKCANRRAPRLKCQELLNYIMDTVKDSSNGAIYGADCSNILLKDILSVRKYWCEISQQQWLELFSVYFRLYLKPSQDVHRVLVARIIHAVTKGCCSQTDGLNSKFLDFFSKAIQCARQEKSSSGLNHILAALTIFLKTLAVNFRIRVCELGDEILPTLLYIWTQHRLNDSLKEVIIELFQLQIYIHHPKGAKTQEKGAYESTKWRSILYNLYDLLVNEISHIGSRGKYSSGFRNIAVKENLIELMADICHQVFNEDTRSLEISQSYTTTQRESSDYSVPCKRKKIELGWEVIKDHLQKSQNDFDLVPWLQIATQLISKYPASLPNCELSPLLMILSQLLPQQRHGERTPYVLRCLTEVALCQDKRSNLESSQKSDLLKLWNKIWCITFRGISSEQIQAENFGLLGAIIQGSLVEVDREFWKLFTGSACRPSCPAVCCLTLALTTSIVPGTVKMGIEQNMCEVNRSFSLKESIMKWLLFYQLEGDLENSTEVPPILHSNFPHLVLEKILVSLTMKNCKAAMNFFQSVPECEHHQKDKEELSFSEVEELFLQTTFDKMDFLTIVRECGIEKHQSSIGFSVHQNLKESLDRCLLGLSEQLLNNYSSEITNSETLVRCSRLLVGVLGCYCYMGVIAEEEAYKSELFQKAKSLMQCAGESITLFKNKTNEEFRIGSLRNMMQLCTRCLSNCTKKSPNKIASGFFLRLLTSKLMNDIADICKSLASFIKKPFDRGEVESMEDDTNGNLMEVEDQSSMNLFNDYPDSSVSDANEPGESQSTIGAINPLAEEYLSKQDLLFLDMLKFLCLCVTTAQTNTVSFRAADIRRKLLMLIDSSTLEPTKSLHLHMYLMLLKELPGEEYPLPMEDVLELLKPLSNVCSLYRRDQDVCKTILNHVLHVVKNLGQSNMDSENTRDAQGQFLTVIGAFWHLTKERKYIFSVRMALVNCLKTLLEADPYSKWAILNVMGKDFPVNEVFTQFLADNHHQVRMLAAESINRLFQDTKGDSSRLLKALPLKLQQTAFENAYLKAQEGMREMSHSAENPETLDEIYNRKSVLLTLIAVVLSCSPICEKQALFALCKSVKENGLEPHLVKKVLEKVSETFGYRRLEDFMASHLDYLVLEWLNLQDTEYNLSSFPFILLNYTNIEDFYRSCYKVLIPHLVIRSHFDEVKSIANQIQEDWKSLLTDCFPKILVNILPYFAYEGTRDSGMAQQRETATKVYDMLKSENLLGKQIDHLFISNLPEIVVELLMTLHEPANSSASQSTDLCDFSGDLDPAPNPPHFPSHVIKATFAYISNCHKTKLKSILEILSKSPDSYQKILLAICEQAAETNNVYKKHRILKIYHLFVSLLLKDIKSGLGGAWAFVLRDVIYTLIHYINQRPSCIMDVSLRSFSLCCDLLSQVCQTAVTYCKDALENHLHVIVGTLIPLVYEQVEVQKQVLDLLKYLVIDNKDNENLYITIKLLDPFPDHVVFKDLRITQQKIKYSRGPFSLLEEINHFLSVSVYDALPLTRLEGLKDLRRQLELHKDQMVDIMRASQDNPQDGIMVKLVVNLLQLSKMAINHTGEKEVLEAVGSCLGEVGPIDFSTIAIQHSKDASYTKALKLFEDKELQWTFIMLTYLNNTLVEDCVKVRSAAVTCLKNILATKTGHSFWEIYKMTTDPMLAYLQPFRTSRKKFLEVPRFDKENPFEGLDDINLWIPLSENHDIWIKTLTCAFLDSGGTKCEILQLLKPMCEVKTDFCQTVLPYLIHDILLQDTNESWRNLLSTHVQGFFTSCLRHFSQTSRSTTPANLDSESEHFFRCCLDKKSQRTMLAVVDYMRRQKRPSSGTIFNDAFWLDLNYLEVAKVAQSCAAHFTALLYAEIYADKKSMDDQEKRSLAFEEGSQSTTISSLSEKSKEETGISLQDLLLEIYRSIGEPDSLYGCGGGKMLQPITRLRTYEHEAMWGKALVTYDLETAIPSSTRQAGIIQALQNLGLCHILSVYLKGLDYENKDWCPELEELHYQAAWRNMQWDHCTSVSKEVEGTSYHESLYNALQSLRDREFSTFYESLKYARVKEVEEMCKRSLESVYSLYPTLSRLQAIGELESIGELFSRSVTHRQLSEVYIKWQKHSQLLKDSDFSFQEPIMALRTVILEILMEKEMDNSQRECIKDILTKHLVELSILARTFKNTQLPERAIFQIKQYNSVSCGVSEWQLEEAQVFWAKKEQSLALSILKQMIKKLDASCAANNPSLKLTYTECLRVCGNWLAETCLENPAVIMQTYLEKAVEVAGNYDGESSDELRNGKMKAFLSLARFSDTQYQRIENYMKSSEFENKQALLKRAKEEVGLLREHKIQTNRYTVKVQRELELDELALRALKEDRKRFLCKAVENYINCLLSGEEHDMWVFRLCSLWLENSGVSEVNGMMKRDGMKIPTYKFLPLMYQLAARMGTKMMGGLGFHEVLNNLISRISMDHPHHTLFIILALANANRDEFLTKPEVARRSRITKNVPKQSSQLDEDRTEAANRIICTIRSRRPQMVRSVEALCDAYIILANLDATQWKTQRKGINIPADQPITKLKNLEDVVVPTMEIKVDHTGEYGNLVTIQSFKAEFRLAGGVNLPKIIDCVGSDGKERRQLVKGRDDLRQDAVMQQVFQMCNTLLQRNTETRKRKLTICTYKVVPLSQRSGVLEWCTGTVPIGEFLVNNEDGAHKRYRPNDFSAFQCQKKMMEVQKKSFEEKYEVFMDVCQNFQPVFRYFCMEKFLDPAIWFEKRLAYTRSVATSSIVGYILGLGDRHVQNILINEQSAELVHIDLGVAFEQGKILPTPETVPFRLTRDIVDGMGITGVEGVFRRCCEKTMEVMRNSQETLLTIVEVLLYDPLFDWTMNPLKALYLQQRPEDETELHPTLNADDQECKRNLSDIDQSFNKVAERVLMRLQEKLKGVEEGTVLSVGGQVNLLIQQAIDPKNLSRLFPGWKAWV

As for `CN(C)CCCOc1ncc(-c2ccc3ncc4c(c3c2)C2(CCCC2)C(=O)N4C)cc1NS(=O)(=O)c1ccccc1` [Example 2, N-(2-(3-(Dimethylamino)propoxy)-5-(3′-methyl-2′-oxo-2′,3′-dihydrospiro[cyelopentane-1,1′-pyrrolo[2,3-c]quinolin]-8′-yl)pyridin-3-yl) benzenesulfonamide], the pIC50 in assay [1] (setting [3]) and in assay [2] (ATP 20 μM) was 7.00 to 9.00 each time.

Regarding `CN(C)CCCOc1ncc(-c2ccc3ncc4c(c3c2)C2(CCC2)C(=O)N4C)cc1NS(=O)(=O)CC#N` [Example 273, 1-Cyano-N-(2-(3-(dimethylamino)propoxy)-5-(3′-methyl-2′-oxo-2′,3′-dihydrospiro[cyclobutane-1,1′-pyrrolo[2,3-c]quinolin]-8′-yl)pyridin-3-yl)methanesulfonamide], the results for the pIC50 in assay [1] (setting [3]) and in assay [2] (ATP 20 μM) were 7.00 to 9.00 and greater than 9.30, respectively.

For `CN(C)CCCOc1ncc(-c2ccc3ncc4c(c3c2)C2(COC2)C(=O)N4C)cc1NS(=O)(=O)C1CC1` [Example 47, N-(2-(3-(Dimethylamino)propoxy)-5-(3′-methyl-2′-oxo-2′,3′-dihydrospiro [oxetane-3,1′-pyrrolo[2,3-c]quinolin]-8′-yl)pyridin-3-yl)cyclopropanesulfonamide], the pIC50 in assay [1] (setting [3]) and in assay [2] (ATP 20 μM) was 7.00 to 9.00 in each case.

Take `CN(C)CCCOc1ncc(-c2ccc3ncc4c(c3c2)CC2(CCC2)C(=O)N4C)cc1NS(=O)(=O)c1ccccc1` [Example 73, N-(2-(3-(Dimethylamino)propoxy)-5-(4-methyl-3-oxo-3,4-dihydro-1H-spiro[benzo[f][1,7]naphthyridine-2,1′-cyclobutan]-9-yl)pyridin-3-yl)benzenesulfonamide]: the pIC50 in assay [1] (setting [3]) and in assay [2] (ATP 20 μM) was 7.00 to 9.00 throughout.

Regarding `CN(C)CCCOc1ncc(-c2ccc3ncc4c(c3c2)C2(CC2)C(=O)N4C)cc1NS(C)(=O)=O` [Example 64, N-(2-(3-(Dimethylamino)propoxy)-5-(3′-methyl-2′-oxo-2′,3′-dihydrospiro[cyclopropane-1,1′-pyrrolo[2,3-c]quinolin]-8′-yl)pyridin-3-yl) methanesulfonamide], the pIC50 was 7.00 to 9.00 in assay [1] (setting [3]) and greater than 9.30 in assay [2] (ATP 20 μM).

Turning to `CN1C(=O)C2(CCC2)c2c1cnc1cc(F)c(-c3cnc(N4CC(N(C)C)C4)c(NS(=O)(=O)c4ccc(F)cc4F)c3)cc21` [Example 315, N-(2-(3-(Dimethylamino)azetidin-1-yl)-5-(7′-fluoro-3′-methyl-2′-oxo-2′,3′-dihydrospiro[cyclobulane-1,1′-pyrrolo[2,3-c]quinolin]-8′-yl)pyridin-3-yl)-2,4-difluorobenzenesulfonamide hydrochloride], the pIC50 in assay [1] (setting [3]) and in assay [2] (ATP 20 μM) was 7.00 to 9.00 each time.

On to `CCCS(=O)(=O)Nc1cc(-c2ccc3ncc4c(c3c2)C2(CCC2)C(=O)N4C)cnc1OCCCN(C)C` [Example 241, N-(2-(3-(Dimethylamino)propoxy)-5-(3′-methyl-2′-oxo-2′,3′-dihydrospiro [cyclobutane-1,1′-pyrrolo[2,3-c]quinolin]-8′-yl)pyridin-3-yl)propane-1-sulfonamide], for which the pIC50 in assay [1] (setting [3]) and in assay [2] (ATP 20 μM) was 7.00 to 9.00 throughout.

As for `CO[C@H]1C[C@@]2(C1)C(=O)N(C)c1cnc3cc(F)c(-c4cnc(OCCNC(C)C)c(NS(=O)(=O)N(C)C)c4)cc3c12` [Example 390], the pIC50 in assay [1] (setting [4]) and in assay [2] (20 μM ATP) was 7.00 to 9.00 each time.

As to `CN1C(=O)C2(CCC2)c2c1cnc1ccc(-c3cnc(N4CCC(N(C)C)CC4)c(NS(=O)(=O)C4CC4)c3)cc21` [Example 173, N-(2-(4-(Dimethylamino)piperidin-1-yl)-5-(3′-methyl-2′-oxo-2′,3′-dihydrospiro[cyclobutane-1,1′-pyrrolo[2,3-c]quinolin]-8′-yl)pyridin-3-yl)cyclopropanesulfonamide], the pIC50 in assay [1] (setting [3]) and in assay [2] (ATP 20 μM) was greater than 9.30 in each case.

As to `CN1C(=O)C2(CCC2)c2c1cnc1ccc(-c3cnc(N4CCC(N5CCCCC5)CC4)c(NS(=O)(=O)c4ccccc4F)c3)cc21` [Example 203], the pIC50 was 7.00 to 9.00 in assay [1] (setting [3]) and 9.00 to 9.30 in assay [2] (ATP 20 μM).

Take `CC(C)NCCOc1ncc(-c2cc3c(cc2F)ncc2c3[C@]3(C[C@H](Oc4ccccc4)C3)C(=O)N2C)cc1NS(C)(=O)=O` [Example 400, cis-N-(5-(7′-Fluoro-3′-methyl-2′-oxo-3-phenoxy-2′,3′-dihydrospiro[cyclobutane-1,1′-pyrrolo[2,3-c]quinolin]-8′-yl)-2-(2-(isopropylamino)ethoxy)pyridin-3-yl)methanesulfonamide]: the pIC50 in assay [1] (setting [4]) was 9.00 to 9.30; in assay [2] (20 μM ATP), 7.00 to 9.00.

On to `CN1C(=O)C2(CC2)c2c1cnc1ccc(-c3cnc(N)nc3)cc21` [Example 48, 8′-(2-Aminopyrimidin-5-yl)-3′-methylspiro [cyclopropane-1,1′-pyrrolo [2,3-c]quinolin]-2′(3′-H)-one], for which the pIC50 in assay [1] (setting [3]) is 7.00 to 9.00; in assay [2] (ATP 20 μM), 9.00 to 9.30.

Regarding `CN1CCC(c2ncc(-c3ccc4ncc5c(c4c3)C3(CCC3)C(=O)N5C)cc2NS(C)(=O)=O)CC1` [Example 285, N-(5-(3′-Methyl-2′-oxo-2′,3′-dihydrospiro[cyclobutane-1,1′-pyrrolo[2,3-c]quinolin]-8′-yl)-2-(1-methylpiperidin-4-yl)pyridin-3-yl)methanesulfonamide], the pIC50 in assay [1] (setting [3]) and in assay [2] (ATP 20 μM) was 7.00 to 9.00 in each case.

On to `CCS(=O)(=O)Nc1cc(-c2cc3c4c(cnc3cc2F)N(C)C(=O)C42CN(c3ccccc3)C2)cnc1OCCNC(C)C` [Example 522, N-(5-(7′-Fluoro-3′-methyl-2′-oxo-1-phenyl-2′,3′-dihydrospiro[azetidine-3,1′-pyrrolo[2,3-c]quinolin]-8′-yl)-2-(2-(isopropylamino)ethoxy)pyridin-3-yl)ethanesulfonamide hydrochloride], for which the pIC50 in assay [1] (setting [4]) was 7.00 to 9.00; in assay [2] (20 μM ATP) it was 9.00 to 9.30.

Take `CN(C)CCCOc1ccc(-c2ccc3ncc4c(c3c2)C2(CC2)C(=O)N4C)cn1` [Example 1, 8′-(6-(3-(Dimethylamino)propoxy)pyridin-3-yl)-3′-methylspiro [cyclopropane-1,1′-pyrrolo[2,3-c]quinolin]-2′(3′-H)-one]: the pIC50 in assay [1] (setting [3]) and in assay [2] (ATP 20 μM) was 7.00 to 9.00 in each case.

`CCc1ccc(N2CC3(C2)C(=O)N(C)c2cnc4cc(F)c(-c5cnc(OCCNC(C)C)c(NS(C)(=O)=O)c5)cc4c23)cc1` [Example 529, N-(5-(1-(4-Ethylphenyl)-7′-fluoro-3′-methyl-2′-oxo-2′,3′-dihydrospiro[azetidine-3,1′-pyrrolo[2,3-c]quinolin]-8′-yl)-2-(2-(isopropylamino)ethoxy)pyridin-3-yl)methanesulfonamide]: the pIC50 in assay [1] (setting [4]) and in assay [2] (20 μM ATP) was 7.00 to 9.00 in each case.

Consider `COc1ncc(-c2ccc3ncc4c(c3c2)C2(CC2)C(=O)N4C)cc1NS(=O)(=O)c1cccc(C(C)=O)c1` [Example 13, 3-Acetyl-N-(2-methoxy-5-(3′-methyl-2′-oxo-2′,3′-dihydrospiro [cyclopropane-1,1′-pyrrolo[2,3-c]quinolin]-8′-yl)pyridin-3-yl)benzenesulfonamide], for which the pIC50 is 7.00 to 9.00 in assay [1] (setting [3]) and greater than 9.30 in assay [2] (ATP 20 μM).

As to `Cc1ccc(S(=O)(=O)Nc2cc(-c3ccc4ncc5c(c4c3)C3(CCC3)C(=O)N5C)cnc2OCCCN(C)C)cn1` [Example 137, N-(2-(3-(Dimethylamino)propoxy)-5-(3′-methyl-2′-oxo-2′,3′-dihydrospiro[cyclobutane-1,1′-pyrrolo[2,3-c]quinolin]-8′-yl)pyridin-3-yl)-6-methylpyridine-3-sulfonamide hydrochloride], the pIC50 in assay [1] (setting [3]) and in assay [2] (ATP 20 μM) was 7.00 to 9.00 in each case.

With `COc1cccc([C@H]2C[C@@]3(C2)C(=O)N(C)c2cnc4cc(F)c(-c5cnc(OCCNC(C)C)c(NS(C)(=O)=O)c5)cc4c23)n1` [Example 429, trans-N-(5-(7′-Fluor-3-(6-methoxypyridin-2-yl)-3′-methyl-2′-oxo-2′,3′-dihydrospiro[cyclobutane-1,1′-pyrrolo[2,3-c]quinolin]-8′-yl)-2-(2-(isopropylamino)ethoxy)pyridin-3-yl)methanesulfonamide], the pIC50 in assay [1] (setting [4]) and in assay [2] (20 μM ATP) was 7.00 to 9.00 throughout.

As to `CN1C(=O)C2(CC2)c2c1cnc1cc(F)c(-c3cnc(OCCCN4CCCC4)c(NS(=O)(=O)c4ccccc4)c3)cc21` [Example 124, N-(5-(7′-Fluoro-3′-methyl-2′-oxo-2′,3′-dihydrospiro[cyclopropane-1,1′-pyrrolo[2,3-c]quinolin]-8′-yl)-2-(3-(pyrrolidin-1-yl)propoxy)pyridin-3-yl)benzenesulfonamide], the pIC50 in assay [1] (setting [3]) and in assay [2] (ATP 20 μM) was 7.00 to 9.00 throughout.

On to `COc1ccc(S(=O)(=O)Nc2cc(-c3ccc4ncc5c(c4c3)C3(CCC3)C(=O)N5C)cnc2OCCCN(C)C)cn1` [Example 133, N-(2-(3-(Dimethylamino)propoxy)-5-(3′-methyl-2′-oxo-2′,3′-dihydrospiro[cyclobulane-l.1′-pyrrolo[2,3-c]quinolin]-8′-yl)pyridin-3-yl)-6-methoxypyridine-3-sulfonamide hydrochloride], for which the pIC50 was 7.00 to 9.00 in assay [1] (setting [3]) and 9.00 to 9.30 in assay [2] (ATP 20 μM).

As for `CN(C)CCCOc1ncc(-c2ccc3ncc4c(c3c2)C2(CC2)C(=O)N4C)cc1NS(=O)(=O)N1CCCC1` [Example 89, N-(2-(3-(Dimethylamino)propoxy)-5-(3′-methyl-2′-oxo-2′,3′-dihydrospiro [cyclopropane-1,1′-pyrrolo[2,3-c]quinolin]-8′-yl)pyridin-3-yl)pyrrolidine-1-sulfonamide hydrochloride], the figures for the pIC50 in assay [1] (setting [3]) and in assay [2] (ATP 20 μM) were 9.00 to 9.30 and greater than 9.30, respectively.
